The values that follow come from ChEMBL document CHEMBL1141144, “Discovery and structure-activity relationship of 3-aryl-5-aryl-1,2,4-oxadiazoles as a new series of apoptosis inducers and potential anticancer agents” (J Med Chem, 2005).

Format in all cases: functional
The test system of one assay is DLD-1. Description: Growth inhibitory activity against DLD-1 cells done for 48 h at 37 degree C with compound. The note with it: Homo sapiens, DLD-1, 48 h.
In a further assay the test system is NCI-H1299. Kind of assay: Growth inhibitory activity against H1299 cells done for 48 h at 37 degree C with compound. The note with it: Homo sapiens, NCI-H1299, 48 h.
For another assay, the system named is T47D. Description: Growth inhibitory activity aganist T47D cells done for 48 hr at 37 degree C with compound. As to conditions: Homo sapiens.
The next assay is filed under the species Mus musculus. Description: Inhibition of tumor growth in mice with MX-1 tumor after treatment in combination with paclitaxel.

The GI50 is the concentration at which growth is held to half of that of the control. With `Clc1ccc(-c2noc(-c3occc3Br)n2)cc1`, the values for the GI50 in the assay with DLD-1, in the assay on NCI-H1299 and in the assay with T47D were 510 nM, more than 10000 nM and 120 nM, respectively.
In the same order, the values of `FC(F)(F)c1ccc(-c2noc(-c3sccc3Cl)n2)nc1` are 930 nM, more than 10000 nM and 350 nM.
In the case of `FC(F)(F)c1ccc(-c2noc(-c3occc3Br)n2)cc1`, the GI50 is 130 nM in the assay with DLD-1, more than 10000 nM in the assay on NCI-H1299 and 320 nM in the assay with T47D.
Consider `Cc1ccc(-c2noc(-c3sccc3Cl)n2)cc1`, for which the GI50 in the assay with DLD-1 was 850 nM; in the assay with NCI-H1299, more than 10000 nM; in the assay on T47D, 2200 nM.
The corresponding values for `FC(F)(F)c1ccc(-c2noc(-c3sccc3Cl)n2)cc1` are 770 nM, more than 10000 nM and 220 nM.
With `Clc1ccc(-c2noc(-c3sccc3Cl)n2)cc1`, the GI50 in the assay with DLD-1 is 400 nM; in the assay with NCI-H1299 it was more than 10000 nM; in the assay on T47D, 190 nM.
In the same order, the values of `FC(F)(F)c1ccc(-c2noc(-c3occc3Cl)n2)cc1` are 350 nM, more than 10000 nM and 170 nM.
Regarding `Clc1ccc(-c2noc(-c3sccc3Br)n2)cc1`, the GI50 with DLD-1 was 580 nM; in the assay on NCI-H1299, more than 10000 nM; with T47D, 570 nM.
In the same order, the values of `COc1ccc(-c2noc(-c3sccc3Cl)n2)cc1` are 930 nM, more than 10000 nM and 520 nM.
The term Inhibition denotes the drop in the measured response relative to a control, in per cent. Regarding `Clc1ccc(-c2noc(-c3occc3Cl)n2)cc1`, the 50% growth inhibitory concentration (GI50) was 510 nM in the assay on DLD-1, more than 10000 nM with NCI-H1299 and 120 nM with T47D. Moreover, the Inhibition in the assay filed under Mus musculus is on record as 83%.
Regarding `Clc1ccc(-c2noc(-c3occc3Br)n2)nc1`, the GI50 in the assay on DLD-1 was 430 nM; in the assay with NCI-H1299, more than 10000 nM; in the assay with T47D it was 380 nM.
On to `Clc1ccc(-c2noc(-c3sccc3Cl)n2)nc1`, for which the GI50 in the assay on DLD-1 was 800 nM; with NCI-H1299, more than 10000 nM; in the assay on T47D it was 200 nM.
Regarding `Clc1ccc(-c2noc(-c3occc3Cl)n2)nc1`, the values for the GI50 with DLD-1, in the assay on NCI-H1299 and in the assay on T47D were 600 nM, more than 10000 nM and 13000 nM, respectively.
